Data: ChEMBL document CHEMBL1201862, “PubChem BioAssay data set” (2004)
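How tested: cells in 96-well plates exposed to compound for 48 hours at five concentrations. GI50 = concentration required for 50% inhibition of growth.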 The source made the active and inactive calls. Rule as the data show it: active = GI50 up to about 1.1 µM and inactive = higher.

Assays:
Experiment in all cases: inhibition of tumour cell growth, NCI panel, 48 h
SW-620 = system: SW-620
OVCAR-4 = system: OVCAR-4
SR = system: SR
CCRF-CEM = system: CCRF-CEM
NCI-H460 = system: NCI-H460
HCT-15 = system: HCT-15
NCI-H226 = system: NCI-H226
NCI-H23 = system: NCI-H23
TK-10 = system: TK-10
OVCAR-3 = system: OVCAR-3
NCI/ADR-RES = system: NCI/ADR-RES
M14 = system: M14
RPMI-8226 = system: RPMI-8226
KM12 = system: KM12
HT-29 = system: HT-29
OVCAR-5 = system: OVCAR-5
CAKI-1 = system: CAKI-1
A498 = system: A498

SMILES	GI50 (SW-620)	GI50 (OVCAR-4)	GI50 (SR)	GI50 (CCRF-CEM)	GI50 (NCI-H460)	GI50 (HCT-15) [µM]	GI50 (NCI-H226)	GI50 (NCI-H23)	GI50 (TK-10)	GI50 (OVCAR-3)	GI50 (NCI/ADR-RES)	GI50 (M14)	GI50 (RPMI-8226)	GI50 (KM12)	GI50 (HT-29)	GI50 (OVCAR-5)	GI50 (CAKI-1)	GI50 (A498)
c1ccc2c(c1)c1c(n2CCOCCN2CCCCC2)CCCC1	17.3 µM (inactive)	11.1 µM (inactive)	13.8 µM (inactive)	12.4 µM (inactive)	11.9 µM (inactive)	14.1	21.7 µM (inactive)	15.2 µM (inactive)	14.3 µM (inactive)	9.75 µM (inactive)	10.1 µM (inactive)	12.8 µM (inactive)	9.29 µM (inactive)	13 µM (inactive)	11.6 µM (inactive)	12.3 µM (inactive)		
CC1=C(C#N)S(=O)(=O)c2c(oc(C)c2C)N1	> 100 µM (inactive)	> 100 µM (inactive)			> 100 µM (inactive)	> 100	> 100 µM (inactive)	> 100 µM (inactive)	> 100 µM (inactive)	> 100 µM (inactive)	> 100 µM (inactive)	> 100 µM (inactive)	> 100 µM (inactive)	> 100 µM (inactive)	> 100 µM (inactive)	> 100 µM (inactive)	> 100 µM (inactive)	> 100 µM (inactive)
Oc1ccc[n+](Cc2ccccc2)c1				> 100 µM (inactive)	> 100 µM (inactive)	> 100	> 100 µM (inactive)	> 100 µM (inactive)	> 100 µM (inactive)	> 100 µM (inactive)	> 100 µM (inactive)	> 100 µM (inactive)	> 100 µM (inactive)	> 100 µM (inactive)	> 100 µM (inactive)	> 100 µM (inactive)	> 100 µM (inactive)	> 100 µM (inactive)
O=C(O)C1CCCCC1C(=O)Nn1cnnc1 (stereo not given)	> 100 µM (inactive)	> 100 µM (inactive)	> 100 µM (inactive)	> 100 µM (inactive)		> 100		> 100 µM (inactive)	> 100 µM (inactive)	> 100 µM (inactive)	> 100 µM (inactive)	> 100 µM (inactive)	> 100 µM (inactive)	> 100 µM (inactive)	> 100 µM (inactive)	> 100 µM (inactive)		
CN(C)CCCn1c(Cn2nc3ccccc3n2)nc2cc(C(F)(F)F)ccc21	34.2 µM (inactive)	33.4 µM (inactive)		13.2 µM (inactive)	26.4 µM (inactive)	30.1	56 µM (inactive)	34 µM (inactive)	24 µM (inactive)	36.7 µM (inactive)	23.4 µM (inactive)	15.3 µM (inactive)		22.8 µM (inactive)	19.7 µM (inactive)	> 100 µM (inactive)	32.6 µM (inactive)	17.2 µM (inactive)
C=C1CN(C2=NCCO2)C1	> 100 µM (inactive)	> 100 µM (inactive)	> 100 µM (inactive)	> 100 µM (inactive)	> 100 µM (inactive)	> 100	> 100 µM (inactive)	> 100 µM (inactive)	> 100 µM (inactive)	> 100 µM (inactive)	> 100 µM (inactive)	> 100 µM (inactive)	> 100 µM (inactive)	> 100 µM (inactive)	> 100 µM (inactive)	> 100 µM (inactive)	> 100 µM (inactive)	
c1cncc(C(Nc2cccc3cccnc23)Nc2cccc3cccnc23)c1	> 100 µM (inactive)			66.1 µM (inactive)	> 100 µM (inactive)	> 100		> 100 µM (inactive)	> 100 µM (inactive)	> 100 µM (inactive)	> 100 µM (inactive)	> 100 µM (inactive)	55.8 µM (inactive)	> 100 µM (inactive)	> 100 µM (inactive)	> 100 µM (inactive)	53 µM (inactive)	
N#C/C(=C\c1cc(Br)c(O)c(Br)c1)c1cccnc1	28.8 µM (inactive)	33.3 µM (inactive)	31.3 µM (inactive)	18.2 µM (inactive)	32.5 µM (inactive)	17.7	21.5 µM (inactive)	21 µM (inactive)	27.4 µM (inactive)	21 µM (inactive)	24 µM (inactive)	26.1 µM (inactive)	21.6 µM (inactive)	27.2 µM (inactive)	34.9 µM (inactive)	41.6 µM (inactive)	35.7 µM (inactive)	
N=C(N)NS(=O)(=O)c1ccc(NC(=O)c2ccc3nc4ccccc4c(N)c3c2)cc1	> 100 µM (inactive)	> 100 µM (inactive)	> 100 µM (inactive)	> 100 µM (inactive)	> 100 µM (inactive)	> 100	> 100 µM (inactive)	> 100 µM (inactive)	> 100 µM (inactive)	> 100 µM (inactive)	> 100 µM (inactive)	> 100 µM (inactive)	> 100 µM (inactive)	74.6 µM (inactive)	> 100 µM (inactive)	> 100 µM (inactive)	> 100 µM (inactive)	
CN(C(=O)c1cc2c(s1)sc1c(=O)n(C)c3ccccc3c12)c1ccccc1		42.7 µM (inactive)	1.93 µM (inactive)	2.74 µM (inactive)	2.43 µM (inactive)	1.72	5.48 µM (inactive)	7.73 µM (inactive)	24.7 µM (inactive)	7.83 µM (inactive)	4.54 µM (inactive)	50.9 µM (inactive)		0.729 µM (active)	2.77 µM (inactive)	63.7 µM (inactive)	7.41 µM (inactive)	
COc1ccc2c(C=O)c3n(c(=O)c2c1OC)CCc1cc2c(cc1-3)OCO2	38.6 µM (inactive)	> 100 µM (inactive)		> 100 µM (inactive)	53.6 µM (inactive)	27.7	> 100 µM (inactive)	27.2 µM (inactive)	96.8 µM (inactive)	80.5 µM (inactive)	18.6 µM (inactive)	18.6 µM (inactive)	3.68 µM (inactive)	27.9 µM (inactive)	17.6 µM (inactive)	> 100 µM (inactive)	> 100 µM (inactive)	> 100 µM (inactive)
Cc1ccc(S(=O)(=O)c2c(O)c3ccccc3n(C)c2=O)cc1	> 100 µM (inactive)	> 100 µM (inactive)		> 100 µM (inactive)	> 100 µM (inactive)	> 100	> 100 µM (inactive)	> 100 µM (inactive)		> 100 µM (inactive)	> 100 µM (inactive)	> 100 µM (inactive)	> 100 µM (inactive)	> 100 µM (inactive)	> 100 µM (inactive)	> 100 µM (inactive)	> 100 µM (inactive)	> 100 µM (inactive)
CC(=O)Oc1c(C)cc2c(c1C)C(C)CN2C(C)=O (stereo not given)	> 100 µM (inactive)	> 100 µM (inactive)		> 100 µM (inactive)	> 100 µM (inactive)	> 100	> 100 µM (inactive)	> 100 µM (inactive)	> 100 µM (inactive)	> 100 µM (inactive)	> 100 µM (inactive)	> 100 µM (inactive)	> 100 µM (inactive)	> 100 µM (inactive)	> 100 µM (inactive)	> 100 µM (inactive)		> 100 µM (inactive)
COP(C)(=O)C(Cc1c[nH]c2ccccc12)NC(=O)OCc1ccccc1 (stereo not given)	> 100 µM (inactive)	> 100 µM (inactive)		> 100 µM (inactive)	> 100 µM (inactive)	> 100	> 100 µM (inactive)	> 100 µM (inactive)	> 100 µM (inactive)	> 100 µM (inactive)	> 100 µM (inactive)	> 100 µM (inactive)	> 100 µM (inactive)	> 100 µM (inactive)	> 100 µM (inactive)	> 100 µM (inactive)	> 100 µM (inactive)	> 100 µM (inactive)
CCOC(=O)c1cc(=O)c2ccnc3c2n1CCS3	> 100 µM (inactive)			48.5 µM (inactive)	> 100 µM (inactive)	> 100	> 100 µM (inactive)	32.1 µM (inactive)	> 100 µM (inactive)	61.7 µM (inactive)	> 100 µM (inactive)	> 100 µM (inactive)		40.9 µM (inactive)	> 100 µM (inactive)	> 100 µM (inactive)	> 100 µM (inactive)	> 100 µM (inactive)
Cn1c(N)nc2c(nc(OCc3ccccc3)n2C2OC(CO)C(O)C2O)c1=O (stereo not given)	> 100 µM (inactive)	> 100 µM (inactive)	> 100 µM (inactive)	> 100 µM (inactive)	> 100 µM (inactive)		> 100 µM (inactive)		> 100 µM (inactive)	> 100 µM (inactive)		> 100 µM (inactive)	> 100 µM (inactive)	> 100 µM (inactive)	> 100 µM (inactive)	> 100 µM (inactive)	> 100 µM (inactive)	> 100 µM (inactive)
CNC(=O)c1ccccc1-[s+]1c2ccccc2c(=O)n1C (stereo not given)	> 100 µM (inactive)	> 100 µM (inactive)		> 100 µM (inactive)		> 100	> 100 µM (inactive)	> 100 µM (inactive)	> 100 µM (inactive)	> 100 µM (inactive)	> 100 µM (inactive)	> 100 µM (inactive)	> 100 µM (inactive)	> 100 µM (inactive)	> 100 µM (inactive)	> 100 µM (inactive)	> 100 µM (inactive)	> 100 µM (inactive)
CCOC(=O)c1sc2nc(SC)nc3c2c1NCN3C1CC1		> 100 µM (inactive)		> 100 µM (inactive)	> 100 µM (inactive)	> 100	> 100 µM (inactive)	> 100 µM (inactive)	> 100 µM (inactive)	> 100 µM (inactive)	> 100 µM (inactive)	> 100 µM (inactive)	> 100 µM (inactive)	> 100 µM (inactive)	> 100 µM (inactive)	> 100 µM (inactive)	> 100 µM (inactive)	> 100 µM (inactive)
